Patent US20250313546A1, “NUCLEIC ACID BINDERS” (UNIVERSITY OF STRATHCLYDE, priority 2022, published 2025)
Converted amounts (≈) assume the structure as drawn.

Legend:
[1] = system: Enterococcus faecalis (ATCC 51299); assay: Antibacterial MIC, broth microdilution (CLSI); format: cell-based; settings: for MIC80: Enterococcus faecalis, ATCC51299, read-out: MIC80 E. faecalis
[2] = system: Staphylococcus aureus (ATCC 43300); assay: Antibacterial MIC, broth microdilution (CLSI); format: cell-based; settings: for S. aureus Selectivity Indices, Group: SI, IC50 (μM)/MIC80 (μM), HEK293 cytotoxicity, Alkyl Amidines and NH Pyrroles; for MIC80: Staphylococcus aureus, ATCC43300, read-out: MIC80 S. aureus
T. equiperdum = assay: Resazurin-based (Alamar blue) drug sensitivity assay; settings: Trypanosoma equiperdum, read-out: IC50 T. equiperdum
Protocol: A detailed description of the procedure for evaluating activity against trypanosomes, using an Alamar Blue (resazurin) assay, is described below.
The bloodstream form (BSF) T. b. brucei s427 (see De Koning, H. P. et al., Mol. Biochem. Parasitol. 2000, 106, 181-185), T. evansi AntTat 3/3 (see Dean, S. et al., Proc. Natl. Acad. Sci. USA, 2013, 110, 14741-14746), and T. equiperdum (see Stewart, M. L. et al., Eukaryot. Cell, 2010, 9, 336-343) were cultured in HMI-9 medium (Life Technologies, Paisley, United Kingdom) supplemented with 10% heat inactivated Foetal Bovine Serum (FBS (PAA Laboratories Linz, Austria)), 14 μL/L β-mercaptoethanol (BDH, Dorset, UK), and 3.0 g/L NaHCO3 (Sigma-Aldrich) and adjusted to pH 7.4. These cell lines were maintained at 37° C. in a humidified, 5% CO2 environment.
A resazurin-based (Alamar blue) drug sensitivity assay was used to assess and compare the activity of standard trypanocides in the different cell lines investigated (see Gould, M. K. et al., Anal. Biochem., 2008, 382, 87-93). Briefly, 23 doubling dilutions of the test compound of the invention, starting at 100 μM, and a compound-free control were prepared in 100 μL medium in a 96-well white plate (Greiner Bio-one, Frickenhausen, Germany). The cells were adjusted to 2×10^4 cells/mL for T. b. brucei and T. equiperdum; 4×10^4 cells/mL for T. evansi; and 5×10^5 cells/mL for T. congolense in the appropriate medium. 100 μL of the adjusted cells was then added to the wells containing drug dilutions and incubated for 48 h under respective culture condition. Thereafter, 20 μL of 125 mg/mL resazurin sodium dye was added, and the plate was incubated for a further 24 h.

[3] = system: Candida glabrata (ACPF3309); settings: Nakaseomyces glabratus, read-out: MIC99 Candida glabrata
C. neoformans (F10025) = settings: Cryptococcus neoformans, read-out: MIC99 C. neoformans
T. evansi AntTat 3/3 = assay: Resazurin-based (Alamar blue) drug sensitivity assay; settings: read-out: IC50 T. evansi
[4] = system: A. fumigatus A1160 (MFIG001); settings: Aspergillus fumigatus, read-out: MIC99 A. fumigatus A1160
Protocol: (§2) The Minimum Inhibitory Concentration (MIC, at 99% inhibition) of the compounds was determined using the broth microdilution method as recommended by EUCAST (EUCAST Definitive Document E.DEF 9.3.2, Method for the determination of broth dilution minimum inhibitory concentrations of antifungal agents for conidia forming moulds and EUCAST Definitive Document E.DEF 7.3.2 Method for the determination of broth dilution minimum inhibitory concentrations of antifungal agents for yeasts).

[5] = system: Scedosporium prolificans (F2746); settings: Lomentospora prolificans, read-out: MIC99 Scedosporium prolificans
C. albicans (ATCC 90028) = settings: Candida albicans, ATCC90028, read-out: MIC99 C. albicans
Protocol: as §2

[6] = system: Escherichia coli (ATCC 25922); assay: Antibacterial MIC, broth microdilution (CLSI); format: cell-based; settings: Escherichia coli, ATCC25922; read-out: MIC80 E. coli
[7] = system: Genomic double stranded DNA (salmon); assay: Fluorescence intercalator displacement (FID) assay, SYBR-safe probe; settings: 20 μM compound, 30° C., lower % = stronger binding
In short: (§1)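 Compound at 20 μM mixed with 3.76 ng/mL polyAU dsRNA or salmon genomic dsDNA and 12500-fold diluted SybrSafe in 1 mM phosphate buffer pH 7.4, then heated to 30 °C and fluorescence read. Reduction is expressed as normalised %, with nucleic acid plus probe as maximum and probe alone as minimum.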

[8] = system: PolyAU double stranded RNA; assay: as above; settings: 20 μM compound, 30° C., lower % = stronger binding
In short: as §1

[9] = system: Rhizopus arrhizus (NEQAS12.35321); settings: read-out: MIC99 Rhizopus arrhizus
A. flavus (CBS 128.202) = settings: Aspergillus flavus, CBS128, read-out: MIC99 A. flavus
Protocol: as §2

Candida auris (H.17.157) = settings: for MIC99: Candidozyma auris, read-out: MIC99 Candida auris
[10] = system: Fusarium oxysporum (F7098); settings: read-out: MIC99 Fusarium oxysporum
Protocol: as §2

[11] = system: SARS-CoV-2 (hCoV-19/Australia/VIC01/2020); assay: SARS-CoV-2 microplaque inhibition assay in Vero-E6 cells; format: cell-based
Influenza (H1N1) = assay: Accelerated Viral Neuraminidase Inhibition Assay (AVINA), A549 cells; format: cell-based; settings: Influenza A virus, 72 h
[12] = system: Human rhinovirus (HRV-14); assay: Viral ToxGlo assay, Hela Ohio cells; format: cell-based; settings: M-HeLa, 72 h

SMILES | MIC80 [1] [µM] | S. aureus Selectivity Indices, Group [2] | MIC80 [2] [µM] | IC50 (T. equiperdum) [µM] | MIC99 [3] [µg/mL] | MIC99 (C. neoformans (F10025)) [µg/mL] | MIC99 [4] [µg/mL] | MIC99 [5] [µg/mL] | MIC99 (C. albicans (ATCC 90028)) [µg/mL] | MIC80 [6] [µM] | % Normalised Fluorescence with gDNA [7] [%] | % Normalised Fluorescence with polyAU RNA [8] [%] | MIC99 [9] [µg/mL] | MIC99 (A. flavus (CBS 128.202)) [µg/mL] | MIC99 (Candida auris (H.17.157)) [µg/mL] | MIC99 [10] [µg/mL] | other results
Cn1cc(NC(=O)c2cc(NC(=O)c3ccc(/C=C/c4ccc5nonc5c4)cc3)c[nH]2)cc1C(=O)NCCC(=N)N [IIIa1, (E)-N-(3-amino-3-iminopropyl)-4-(4-(4-(2-(benzo[c][1,2,5]oxadiazol-5-yl)vinyl)benzamido)-1H-pyrrole-2-carboxamido)-1-methyl-1H-pyrrole-2-carboxamide] | 5 to 25 (≈ 2.83 to 14.1 µg/mL) | C (Group C: 5 < SI <= 10) | < 5 | 0.01 to 0.1 | < 5 | < 5 | 5 to 25 (≈ 8.84 to 44.2 µM) | 5 to 25 (≈ 8.84 to 44.2 µM) | 25 to 50 (≈ 44.2 to 88.4 µM) | > 100 | 17 | 18 | 5 to 25 (≈ 8.84 to 44.2 µM) | 5 to 25 (≈ 8.84 to 44.2 µM) | > 50 | 5 to 25 (≈ 8.84 to 44.2 µM) | E. faecalis Selectivity Indices, Group ([1]; SI, IC50 (μM)/MIC80 (μM), HEK293 cytotoxicity, Alkyl Amidines and NH Pyrroles): B (Group B: 3 < SI <= 5); IC50 (T. evansi AntTat 3/3): 0.01 to 0.1 µM
CN(C)c1ccc(/C=C/c2ccc(C(=O)Nc3c[nH]c(C(=O)Nc4cc(C(=O)NCCC(=N)N)n(C)c4)c3)cn2)cc1 [IIIa5, (E)-N-(5-((5-((3-amino-3-iminopropyl)carbamoyl)-1-methyl-1H-pyrrol-3-yl)carbamoyl)-1H-pyrrol-3-yl)-6-(4-(dimethylamino)styryl)nicotinamide] | 5 to 25 (≈ 2.84 to 14.2 µg/mL) | C (Group C: 5 < SI <= 10) | < 5 | 0.1 to 1 | 5 to 25 (≈ 8.81 to 44 µM) | – | 5 to 25 (≈ 8.81 to 44 µM) | – | < 5 | > 100 | 11 | 3 | 5 to 25 (≈ 8.81 to 44 µM) | 5 to 25 (≈ 8.81 to 44 µM) | 5 to 25 (≈ 8.81 to 44 µM) | – | SARS-CoV-2 Selectivity Indices, Group ([11]; SI, IC50 (μM)/IC50 (μM), HEK293 cytotoxicity, Alkyl Amidines and NH Pyrroles): D (Group D: SI > 25); SARS-CoV-2 Selectivity Index (SI) ([11]; SI, IC50 (μM)/IC50 (μM), HEK293 cytotoxicity, numeric value): 39; IC50 ([11]; Severe acute respiratory syndrome coronavirus 2, Vero C1008, plaque inhibition, Vero-E6 cells, read-out: IC50 SARS-CoV-2): < 2 µM; inhibition at 20 µM (Influenza (H1N1)): 25 to 50%; inhibition at 20 µM [12]: > 50%; C. auris Selectivity Indices, Group (Candida auris (H.17.157); SI, IC50 (μM)/MIC99 (μg/mL), HEK293 cytotoxicity, Alkyl Amidines and NH Pyrroles): D (Group D SI > 3); C. auris Selectivity Index (SI) (Candida auris (H.17.157); SI, IC50 (μM)/MIC99 (μg/mL), HEK293 cytotoxicity, numeric value): 5
CN(C)c1ccc(/C=C/c2ccc(C(=O)Nc3cc(C(=O)Nc4c[nH]c(C(=O)NCCN5CCOCC5)c4)n(C)c3)cn2)cc1 [IIIb3, (E)-6-(4-(dimethylamino)styryl)-N-(1-methyl-5-((5-((2-morpholinoethyl)carbamoyl)-1H-pyrrol-3-yl)carbamoyl)-1H-pyrrol-3-yl)nicotinamide] | > 100 | – | < 5 | – | > 50 | > 50 | 25 to 50 (≈ 40.9 to 81.9 µM) | > 50 | > 50 | > 100 | 31 | 39 | > 50 | > 50 | > 50 | > 50 | –
C/N=C(/CCNC(=O)c1cc(NC(=O)c2cc(NC(=O)c3ccc(/C=C/c4ccc5nonc5c4)cc3)cn2C)cn1C)NC [Ia6, 4-(4-((E)-2-(benzo[c][1,2,5]oxadiazol-5-yl)vinyl)benzamido)-1-methyl-N-(1-methyl-5-(((Z)-3-(methylamino)-3-(methylimino)propyl)carbamoyl)-1H-pyrrol-3-yl)-1H-pyrrole-2-carboxamide] | < 5 | – | < 5 | – | < 5 | < 5 | < 5 | < 5 | < 5 | > 100 | 3 | 6 | 5 to 25 (≈ 8.23 to 41.1 µM) | < 5 | > 50 | < 5 | –
